This note sets out measurements from ChEMBL document CHEMBL1201862, “PubChem BioAssay data set” (2004).

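Values below derive from 48-hour exposures of cells grown in 96-well plates, with endpoints linearly interpolated between the two concentrations bracketing the appropriate inhibition level. GI50: concentration for 50% inhibition of growth.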 The source made the active and inactive calls. No stated cut-off is given here; in the data, active = GI50 up to about 1.1 µM and inactive = higher. Bounds are passed on as bounds.

Holding throughout (test): DTP human tumour cell line panel, 48 h
Assay [1] has as its system OVCAR-5.
The subject of assay [2] is SN12C.
Assay [3] has as its system NCI-H226.
For assay [4], the system named is SNB-75.
The test system of assay [5] is MCF7.
Assay [6] deals with UACC-257.
In assay [7] the test system is MOLT-4.
In assay [8] the test system is SK-MEL-5.
Assay [9] deals with SNB-19.
The test system of assay [10] is MDA-MB-435.
Assay [11] concerns HOP-92.
Assay [12] relates to HCT-15.
Assay [13] relates to OVCAR-8.
For assay [14], the system named is COLO 205.
In assay [15] the test system is NCI-H460.
Assay [16] relates to HCT-116.
Assay [17] concerns HL-60.
The subject of assay [18] is EKVX.
Assay [19] deals with CAKI-1.
Assay [20] concerns RXF 393.

For orientation: GI50 means the concentration that inhibits growth by half. In the case of `CC1OC2OC3C(OCC(O)C3O)OC(=O)[C@]34CCC(C)(C)CC3C3=CCC5[C@@]6(C)C[C@H](O)[C@H](OC7OC(CO)C(O)C(O)C7OC7OCC(OC(=O)CC(C)(O)CC(=O)OC1C(O)C2O)C(O)C7O)[C@@](C)(CO)C6CC[C@@]5(C)[C@]3(C)CC4` (stereo partly specified), the GI50 is 2.66 µM (inactive) in [1]; 9.53 µM (inactive) in [2]; 14.9 µM (inactive) in assay [3]; 5.64 µM (inactive) in [4]; 13 µM (inactive) in assay [5]; 2.33 µM (inactive) in [6]. Also, the GI50 in assay [7] was 8.89 µM (inactive); in assay [8], 4.18 µM (inactive); in [9], 6.22 µM (inactive); in assay [10], 5.89 µM (inactive); in [11], 2.32 µM (inactive); in [12] it was 7.98 µM. Also, the GI50 in assay [13] was 4.5 µM (inactive); in [14], 1.89 µM (inactive); in assay [15], 11.6 µM (inactive); in assay [16] it was 5.75 µM (inactive); in [17], 1.82 µM (inactive).
For the compound `Cc1cc(S(=O)(=O)[N-]/C(=N/S(=O)(=O)c2ccc(Cl)cc2)[n+]2ccc(N(C)C)cc2)c(S)cc1Cl`, the GI50 in assay [1] was 61.5 µM (inactive); in assay [3] it was 33.8 µM (inactive); in [18], > 100 µM (inactive); in [5], 47.9 µM (inactive); in assay [6], > 100 µM (inactive); in assay [7], 0.656 µM (active). In addition, the GI50 in assay [8] was > 100 µM (inactive); in [10], > 100 µM (inactive); in assay [19], > 100 µM (inactive); in assay [12], 75.7 µM; in assay [13], > 100 µM (inactive); in [20], 84.1 µM (inactive). Moreover, the GI50 in assay [15] is 48.3 µM (inactive); in assay [16], 20.5 µM (inactive); in assay [17] it was 34.8 µM (inactive).
`c1cc2nnnn2nc1N1CCCC1`: the GI50 in assay [1], in assay [2], in assay [3], in assay [5], in assay [6] and in assay [7] was > 100 µM (inactive) throughout. Also, the GI50 in assay [8] was > 100 µM (inactive); in assay [9], > 100 µM (inactive); in assay [10] it was > 100 µM (inactive); in assay [11], > 100 µM (inactive); in assay [19] it was > 100 µM (inactive); in [12], above 100 µM. For the same compound, the GI50 in assay [13], in [20], in assay [14], in [15], in assay [16] and in assay [17] was > 100 µM (inactive) each time.
With `CCOC(=O)c1nc2ccccc2nc1Oc1ccc(OC)cc1`, the GI50 in assay [1], in [2], in assay [3], in [18], in assay [5] and in assay [6] was > 100 µM (inactive) in each case. Further, the GI50 in assay [7] was > 100 µM (inactive); in assay [8], > 100 µM (inactive); in [9], > 100 µM (inactive); in assay [10], > 100 µM (inactive); in assay [11], > 100 µM (inactive); in assay [12], above 100 µM. The GI50 in [13], in assay [20], in [14], in assay [15], in assay [16] and in assay [17] was > 100 µM (inactive) in each case.
Regarding `Oc1ccc(-c2nc3ccc(Br)cc3s2)cc1`, the GI50 is 24 µM (inactive) in [1]; 18.2 µM (inactive) in [2]; 16.3 µM (inactive) in assay [3]; 13 µM (inactive) in assay [18]; 4.85 µM (inactive) in assay [5]; 21.4 µM (inactive) in assay [6]. Moreover, the GI50 in assay [7] was 33.3 µM (inactive); in assay [8] it was 13.5 µM (inactive); in assay [9] it was 23.3 µM (inactive); in [10], 21.1 µM (inactive); in [19], 15.7 µM (inactive); in assay [12] it was 20.3 µM. For the same compound, the GI50 in assay [13] was 20.4 µM (inactive); in assay [20], 31.3 µM (inactive); in assay [14] it was 15.9 µM (inactive); in [15] it was 21.7 µM (inactive); in assay [16], 20 µM (inactive); in assay [17] it was 17 µM (inactive).
For `CCN(CC)C(=S)SS(=O)(=O)c1cccc(N)c1`, the GI50 in [1], in assay [2], in assay [3], in assay [18], in [5] and in [6] was > 100 µM (inactive) in each case. Also, the GI50 in [7], in [8], in assay [9], in [10], in assay [11] and in assay [19] was > 100 µM (inactive) each time. Moreover, the GI50 in assay [12] was above 100 µM; in [13] it was > 100 µM (inactive); in [20], > 100 µM (inactive); in assay [14], > 100 µM (inactive); in assay [15], > 100 µM (inactive); in assay [16], > 100 µM (inactive).
Take `NC(=O)N/N=C1/CCC(O)CC1CC(=O)O` (stereo unspecified): the GI50 in assay [1], in assay [2], in [3], in assay [18], in assay [5] and in [6] was > 100 µM (inactive) each time. For the same compound, the GI50 in [7], in assay [8], in assay [9], in assay [10], in [11] and in assay [19] was > 100 µM (inactive) in each case. The GI50 is above 100 µM in [12]; > 100 µM (inactive) in assay [13]; > 100 µM (inactive) in [20]; > 100 µM (inactive) in assay [14]; > 100 µM (inactive) in assay [15]; > 100 µM (inactive) in assay [16]. Further, the GI50 in assay [17] is 2.7 µM (inactive).
With `C#C/C=C\CCCC/C=C\C#CC#CCCCC#CC#C[C@H](COS(=O)(=O)O)OS(=O)(=O)O`, the GI50 is > 100 µM (inactive) in [1]; > 100 µM (inactive) in [2]; > 100 µM (inactive) in assay [18]; 33 µM (inactive) in [4]; > 100 µM (inactive) in assay [5]; > 100 µM (inactive) in assay [6]. Also, the GI50 in assay [7], in [8], in [9], in assay [10], in [11] and in assay [19] was > 100 µM (inactive) throughout. For the same compound, the 50% growth inhibitory concentration (GI50) in assay [12] is above 100 µM; in assay [13] it was > 100 µM (inactive); in assay [14], > 100 µM (inactive); in assay [15] it was > 100 µM (inactive); in [16] it was > 100 µM (inactive); in [17], > 100 µM (inactive).
Turning to `CCOC(=O)Cc1csc2[n+]1C(=O)/C(=C/c1cccc(OC)c1O)S2`, the GI50 in [1] is > 100 µM (inactive); in assay [2], 81.5 µM (inactive); in assay [3] it was > 100 µM (inactive); in assay [18] it was 74.1 µM (inactive); in assay [4] it was 18.7 µM (inactive); in assay [5], 45.3 µM (inactive). For the same compound, the GI50 in assay [6] was 61.8 µM (inactive); in assay [7], 4.43 µM (inactive); in assay [8], 42.9 µM (inactive); in [9], 50.9 µM (inactive); in [10], 11.9 µM (inactive); in [11], 93.8 µM (inactive). For the same compound, the GI50 was 59.2 µM (inactive) in [19]; 42.4 µM in [12]; 52.6 µM (inactive) in assay [13]; 78.5 µM (inactive) in [14]; 41.9 µM (inactive) in [15]; 45.5 µM (inactive) in assay [16]. In addition, the GI50 in assay [17] is 45.8 µM (inactive).
On to `COc1ccc(CC2COc3cc(OC)cc(OC)c3C2=O)cc1` (stereo unspecified), for which the GI50 is 24.7 µM (inactive) in assay [1]; 38.9 µM (inactive) in assay [2]; 29.5 µM (inactive) in assay [18]; 36 µM (inactive) in assay [5]; 32.5 µM (inactive) in assay [6]; 30.3 µM (inactive) in assay [7]. The GI50 in [8] was 21.1 µM (inactive); in [9], 25.2 µM (inactive); in assay [10], 3.18 µM (inactive); in [11], 25.9 µM (inactive); in assay [19], 17.5 µM (inactive); in [12] it was 9.51 µM. For the same compound, the GI50 in [13] is 26.1 µM (inactive); in [20], 26.8 µM (inactive); in assay [14], 14.8 µM (inactive); in assay [15], 29.6 µM (inactive); in assay [16], 15.3 µM (inactive); in [17], 13.2 µM (inactive).
`CC(C)C[P+](c1ccccc1)(c1ccccc1)c1ccccc1`: the GI50 was 73.6 µM (inactive) in [1]; 12.3 µM (inactive) in assay [2]; 8.79 µM (inactive) in [3]; 3.1 µM (inactive) in assay [18]; 13.1 µM (inactive) in [4]; 3.31 µM (inactive) in assay [5]. Moreover, the GI50 is 0.342 µM (active) in assay [6]; 3.57 µM (inactive) in [7]; 2.86 µM (inactive) in assay [8]; 9.35 µM (inactive) in assay [9]; 2.87 µM (inactive) in assay [10]; 3.32 µM (inactive) in assay [11]. Moreover, the GI50 is 10.5 µM (inactive) in [19]; 64.3 µM in assay [12]; 3.08 µM (inactive) in assay [14]; 5.89 µM (inactive) in assay [15]; 4.3 µM (inactive) in assay [16]; 2.29 µM (inactive) in assay [17].
